Experimental data reported in patent publication US6479530B2, “Imidazole derivatives having affinity for α2 receptors” (Orion Corporation, priority 1995, dated 2002).

Key:
α2-adrenoceptors [1] = assay: Binding assay, displacement of 1 nM 3H-RX821002 in rat neocortical membranes; details: ratio of affinities on rat neocortical α2- vs α1-adrenoceptors
Description: (§1) Affinities for α2-adrenoceptors and α1-adrenoceptors were estimated by determining the displacement of 1 nM ^3H-RX821002 (α2) or 0.1 nM ^3H-prazosin (α1) from α-adrenoceptors in rat neocortical membranes. For this purpose membranes were incubated with different concentrations of test compounds spanning a concentration range of five orders of magnitude. Nonspecific binding was defined with 10 μM phentolamine. Membranes were used at a protein concentration of 2 mg/ml in a total volume of 250 μl. The incubation buffer consisted of 50 mM TRIS-HCl, pH 7.7. After a 30 min incubation at 25° C. samples were filtered through glass fibre filter and filters were washed three times with 4 ml icecold wash buffer consisting of 10 mM TRIS-HCl, pH 7.7. Filters were then dried, impregnated with a scintillation cocktail and counted in a scintillation counter. Experimental data was analyzed using the commercial nonlinear least squares computer program LIGAND.
(§2) Each compound was tested in at least three independent experiments for its affinity on rat neocortical α2- or α1-adrenoceptors.

α2-adrenoceptors [2] = biological target: T1, α2-adrenoceptors; assay: as above; details: rat neocortical membranes, 1 nM 3H-RX821002, 30 min at 25° C., at least three independent experiments
T1 construct: pKi α2; other: rat neocortical membranes, 1 nM 3H-RX821002, 30 min at 25° C., at least three independent experiments
Description: as §1, §2

α1-adrenoceptors = assay: Binding assay, displacement of 0.1 nM 3H-prazosin in rat neocortical membranes; details: 30 min at 25° C., at least three independent experiments
Description: as §1, §2

SMILES | alpha2 vs alpha1 selectivity (α2-adrenoceptors [1]) | pKi α2 (α2-adrenoceptors [2]) | pKi α1 (α1-adrenoceptors)
Cc1cccc([C@H](C)c2cnc[nH]2)c1C [Compound 5, dexmedetomidine, reference compound] | 90 | 8.42 | 6.48
Cl.Oc1ccc2c(c1)C(Cc1c[nH]cn1)CC2 (stereo not drawn) [Compound 2, 3-(1H-Imidazol-4-ylmethyl)-indan-5-ol hydrochloride] | 126 | 8.70 | 6.61
Cc1cccc2c1CCC2c1c[nH]cn1.Cl (stereo not drawn) [Compound 1, 4-(4-Methylindan-1-yl)-1H-imidazole hydrochloride] | 14 | 8.44 | 7.31
Cl.Oc1ccc2c(c1)C(Cc1c[nH]cn1)CCC2 (stereo not drawn) [Compound 4, 8-(1H-Imidazol-4-ylmethyl)-5,6,7,8-tetrahydronaphthalen-2-ol hydrochloride] | 3 | 7.39 | 6.85
CC(c1c[nH]cn1)C1CCc2ccccc21.Cl (stereo not drawn) [Compound 3, 4-[1-(Indan-1-yl)-ethyl]-1H-imidazole hydrochloride] | 142 | 8.35 | 6.21
